Where two headings read alike, the source gives them in different places.
Tests used:
[1] = test system: RAN translation of (G4C2)66-No ATG-GFP in HEK293T cells; assay: Cell-based assay of RAN translation inhibition (GFP/mCherry reporter); conditions: Homo sapiens, HEK-293T, read-out: RANT IC50
[2] = molecular target: Biotin-labeled RNA (target RNA); assay: BLI affinity measurement (ForteBio Octet RED384); assay type: binding; conditions: Table G

Structure (SMILES) | IC50 ([1]; Table G, HEK293T) | Kd [2] | IC50 [1]
Cc1c2ccncc2cc2c3cc(OC[C@H](C)Nc4ccccn4)ccc3n(C)c12 [Compound 269, (S)—N-(1-((5,6-dimethyl-6H-pyrido[4,3-b]carbazol-9-yl)oxy)propan-2-yl)pyridin-2-amine] | > 100 µM | 1400 nM | 
Cc1c2ccnc(C(=O)N[C@H](C)CN(C)C)c2cc2c3cc(OCC(N)=O)ccc3n(C)c12 [Compound 270, 9-(2-amino-2-oxo-ethoxy)-N-[(1R)-2-(dimethylamino)-1-methyl-ethyl]-5,6-dimethyl-pyrido[4,3-b]carbazole-1-carboxamide] | 0.36 µM | 510 nM | 
Cc1c2ccnc(C(=O)N[C@H](C)CN(C)C)c2cc2c3cc(OC[C@H](C)N)ccc3n(C)c12 [Compound 271, 9-[(2S)-2-aminopropoxy]-N-[(1R)-2-(dimethylamino)-1-methyl-ethyl]-5,6-dimethyl-pyrido[4,3-b]carbazole-1-carboxamide] | > 100 µM | 130 nM | 
CC(=O)N[C@@H](C)COc1ccc2c(c1)c1cc3cnccc3c(C)c1n2C [Compound 272, (S)—N-(1-((5,6-dimethyl-6H-pyrido[4,3-b]carbazol-9-yl)oxy)propan-2-yl)acetamide] | 2 µM | 7700 nM | 
Cc1c2ccncc2cc2c3cc(OC[C@H](C)NC(N)=O)ccc3n(C)c12 [Compound 273, (S)-1-(1-((5,6-dimethyl-6H-pyrido[4,3-b]carbazol-9-yl)oxy)propan-2-yl)urea] | 0.39 µM | 140 nM | 
CCN[C@@H](C)COc1ccc2c(c1)c1cc3cnccc3c(C)c1n2C [Compound 275, (2S)-1-(5,6-dimethylpyrido[4,3-b]carbazol-9-yl)oxy-N-ethyl-propan-2-amine] | 20 µM | 62 nM | 
CN[C@@H](C)COc1ccc2c(c1)c1cc3cnccc3c(C)c1n2C [Compound 276, (S)-1-((5,6-dimethyl-6H-pyrido[4,3-b]carbazol-9-yl)oxy)-N-methylpropan-2-amine] | 12 µM | 41 nM | 
CCCN[C@@H](C)COc1ccc2c(c1)c1cc3cnccc3c(C)c1n2C [Compound 277, (2S)-1-(5,6-dimethylpyrido[4,3-b]carbazol-9-yl)oxy-N-propyl-propan-2-amine] |  | 20 nM | 1.5 µM
COCCN[C@@H](C)COc1ccc2c(c1)c1cc3cnccc3c(C)c1n2C [Compound 278, (2S)-1-(5,6-dimethylpyrido[4,3-b]carbazol-9-yl)oxy-N-(2-methoxyethyl)propan-2-amine] | 21 µM | 83 nM | 
Cc1c2ccncc2cc2c3cc(OC[C@H](C)NCC(F)F)ccc3n(C)c12 [Compound 279, (2S)—N-(2,2-difluoroethyl)-1-(5,6-dimethylpyrido[4,3-b]carbazol-9-yl)oxy-propan-2-amine] | 2.4 µM | 250 nM | 
Cc1c2ccncc2cc2c3cc(C(=O)NC[C@H](C)N)ccc3n(C)c12 [Compound 280, (S)—N-(2-aminopropyl)-5,6-dimethyl-6H-pyrido[4,3-b]carbazole-9-carboxamide] | 35 µM | 880 nM | 
Cc1c2ccncc2cc2c3cc(C(=O)N[C@@H](C)CN)ccc3n(C)c12 [Compound 281, (S)—N-(1-aminopropan-2-yl)-5,6-dimethyl-6H-pyrido[4,3-b]carbazole-9-carboxamide] | 17 µM | 460 nM | 
Cc1c2ccncc2cc2c3cc(C(=O)N[C@H](C)CN)ccc3n(C)c12 [Compound 282, N-[(1R)-2-amino-1-methyl-ethyl]-5,6-dimethyl-pyrido[4,3-b] carbazole-9-carboxamide] | 0.67 µM | 140 nM | 
Cc1c2ccncc2cc2c3cc(OC[C@H](C)NC(C)C)ccc3n(C)c12 [Compound 283, (S)-1-((5,6-dimethyl-6H-pyrido[4,3-b]carbazol-9-yl)oxy)-N-isopropylpropan-2-amine] | 2.4 µM | 90 nM | 
Cc1c2ccncc2cc2c3cc(C(=O)NC[C@@H](C)N)ccc3n(C)c12 [Compound 284, (R)—N-(2-aminopropyl)-5,6-dimethyl-6H-pyrido[4,3-b]carbazole-9-carboxamide] | 1.8 µM | 350 nM | 
Cc1c2ccncc2cc2c3cc(C(=O)NC[C@@H](C)O)ccc3n(C)c12 [Compound 285, (R)—N-(2-hydroxypropyl)-5,6-dimethyl-6H-pyrido[4,3-b]carbazole-9-carboxamide] | 0.9 µM | 120 nM | 
Cc1c2ccncc2cc2c3cc(C(=O)N[C@H](C)CN(C)C)ccc3n(C)c12 [Compound 286, N-[(1R)-2-(dimethylamino)-1-methyl-ethyl]-5,6-dimethyl-pyrido[4,3-b]carbazole-9-carboxamide] | 10 µM | 2600 nM | 
Cc1c2ccncc2cc2c3cc(C(=O)NC[C@H](C)O)ccc3n(C)c12 [Compound 287, N-[(2S)-2-hydroxypropyl]-5,6-dimethyl-pyrido[4,3-b]carbazole-9-carboxamide] | 1.4 µM | 1500 nM | 
COC[C@H](C)NC(=O)c1ccc2c(c1)c1cc3cnccc3c(C)c1n2C [Compound 288, (S)—N-(1-methoxypropan-2-yl)-5,6-dimethyl-6H-pyrido[4,3-b]carbazole-9-carboxamide] | 2 µM | 9600 nM | 

Structure (SMILES) | IC50 ([1]; Table G, HEK293T) | Kd [2] | IC50 [1]
Cc1c2ccncc2cc2c3cc(C(=O)N[C@H](C)CO)ccc3n(C)c12 [Compound 289, (R)—N-(1-hydroxypropan-2-yl)-5,6-dimethyl-6H-pyrido[4,3-b]carbazole-9-carboxamide] | 2.4 µM | 5000 nM | 
Cc1c2ccnc(C(=O)NCC(N)=O)c2cc2c3ccccc3n(C)c12 [Compound 290, N-(2-amino-2-oxoethyl)-5,6-dimethyl-6H-pyrido[4,3-b]carbazole-1-carboxamide] | 8.3 µM | > 20000 nM | 
Cc1c2ccncc2cc2c3cc(C(=O)N[C@@H](C)CO)ccc3n(C)c12 [Compound 291, N-[(1S)-2-hydroxy-1-methyl-ethyl]-5,6-dimethyl-pyrido[4,3-b]carbazole-9-carboxamide] | 1.8 µM | 3800 nM | 
Cc1c2ccnc(C(=O)N[C@H](C)CN(C)C)c2cc2c3ccccc3n(C)c12 [Compound 292, (R)—N-(1-(dimethylamino)propan-2-yl)-5,6-dimethyl-6H-pyrido[4,3-b]carbazole-1-carboxamide] |  | 5500 nM | 13 µM
Cc1c2ccncc2cc2c3cc(C(=O)NC[C@@H](C)N(C)C)ccc3n(C)c12 [Compound 294, N-[(2R)-2-(dimethylamino)propyl]-5,6-dimethyl-pyrido[4,3-b]carbazole-9-carboxamide] | 13 µM | 300 nM | 
Cc1c2ccncc2cc2c3cc(C(=O)N[C@@H](C)CN(C)C)ccc3n(C)c12 [Compound 295, N-[(1S)-2-(dimethylamino)-1-methyl-ethyl]-5,6-dimethyl-pyrido[4,3-b]carbazole-9-carboxamide] | 41 µM | 350 nM | 
Cc1c2ccncc2cc2c3cc(C(=O)NCC(N)=O)ccc3n(C)c12 [Compound 296, N-(2-amino-2-oxoethyl)-5,6-dimethyl-6H-pyrido[4,3-b]carbazole-9-carboxamide] | 3 µM | 5300 nM | 
Cc1c2ccncc2cc2c3cc(C(=O)N[C@@H](C)C(N)=O)ccc3n(C)c12 [Compound 297, (S)—N-(1-amino-1-oxopropan-2-yl)-5,6-dimethyl-6H-pyrido[4,3-b]carbazole-9-carboxamide] | 2.9 µM | 2700 nM | 
Cc1c2ccncc2cc2c3cc(C(=O)N[C@H](C)C(N)=O)ccc3n(C)c12 [Compound 298, (R)—N-(1-amino-1-oxopropan-2-yl)-5,6-dimethyl-6H-pyrido[4,3-b]carbazole-9-carboxamide] | 1.4 µM | 6600 nM | 
COC(C)(C)CNC(=O)c1ccc2c(c1)c1cc3cnccc3c(C)c1n2C [Compound 299, N-(2-methoxy-2-methylpropyl)-5,6-dimethyl-6H-pyrido[4,3-b]carbazole-9-carboxamide] | 3.8 µM | 240 nM | 
Cc1c2ccncc2cc2c3cc(C(=O)NC[C@H](C)N(C)C)ccc3n(C)c12 [Compound 300, (S)—N-(2-(dimethylamino)propyl)-5,6-dimethyl-6H-pyrido[4,3-b]carbazole-9-carboxamide] | 8.6 µM | 350 nM | 
COCC(C)(C)NC(=O)c1ccc2c(c1)c1cc3cnccc3c(C)c1n2C [Compound 302, N-(1-methoxy-2-methylpropan-2-yl)-5,6-dimethyl-6H-pyrido[4,3-b]carbazole-9-carb-oxamide] | 9.1 µM | 8200 nM | 
Cc1c2ccncc2cc2c3cc(Oc4ccnc(N)c4)ccc3n(C)c12 [Compound 303, 4-((5,6-dimethyl-6H-pyrido[4,3-b]carbazol-9-yl)oxy)pyridin-2-amine] | > 100 µM | 180 nM | 
Cc1c2ccncc2cc2c3cc(Oc4cccc(N)n4)ccc3n(C)c12 [Compound 304, 6-((5,6-dimethyl-6H-pyrido[4,3-b]carbazol-9-yl)oxy)pyridin-2-amine] | 5.9 µM | 1400 nM | 
Cc1c2ccncc2cc2c3cc(Oc4ccncc4)ccc3n(C)c12 [Compound 306, 5,6-dimethyl-9-(pyridin-4-yloxy)-6H-pyrido[4,3-b]carbazole] | 14 µM | 1200 nM | 
Cc1c2ccnc(C(=O)NCCN)c2cc2c3cc(F)ccc3n(C)c12 [Compound 308, N-(2-aminoethyl)-9-fluoro-5,6-dimethyl-6H-pyrido[4,3-b]carbazole-1-carboxamide] | > 100 µM | 560 nM | 
Cc1c2ccnc(C(=O)NCCN)c2cc2c3cc(F)c(F)cc3n(C)c12 [Compound 309, N-(2-aminoethyl)-8,9-difluoro-5,6-dimethyl-6H-pyrido[4,3-b]carbazole-1-carboxamide] | 41 µM | 1400 nM | 
Cc1c2ccnc(C(=O)N[C@H](C)CN(C)C)c2cc2c3cc(F)ccc3n(C)c12 [Compound 310, (R)—N-(1-(dimethylamino)propan-2-yl)-9-fluoro-5,6-dimethyl-6H-pyrido[4,3-b]carbazole-1-carboxamide] | 38 µM | 970 nM | 

— patent US20240067639A1, “SMALL MOLECULES THAT TARGET THE RNA THAT CAUSES ALS” (EXPANSION THERAPEUTICS, INC., priority 2020, published 2024)
